Data taken from patent US20240190889A1, “NEW CYCLOPENTA-THIENO-DIAZEPINE DERIVATIVES AS GABA A GAMMA1 POSITIVE ALLOSTERIC MODULATORS” (Hoffmann-La Roche Inc., priority 2021, published 2024).

Legend:
[1] = target: human GABAA α1β2γ1 receptor (Homo sapiens (Human), UniProt P14867+Q8N1C3); assay: Radioligand binding assay, competition for [3H]RO7239181, γ1-containing GABAA subtypes
[2] = target: h-GABA-A α2β2γ1 receptor expressed in Xenopus laevis oocytes (Homo sapiens (Human), UniProt P47869+Q8N1C3); assay: Two-electrode voltage clamp electrophysiology in Xenopus oocytes expressing GABAA receptors; type: cell-based; details: for Efficacy (GABA)%: % modulation of GABA EC20 = 100*(Fold increase-1), compound at 30-fold Ki α2β2γ1; for Fold increase h-GABA-A α2β2γ1 oocyte @ 30-fold Ki: GABA EC20, test compound at approx. 30-fold its Ki α2β2γ1, at least 3 oocytes
Description: Functional Expression of GABAA Receptors:
Xenopus Oocytes Preparation
Xenopus laevis oocytes at maturation stages V-VI were used for the expression of cloned mRNA encoding GABAA receptor subunits. Oocytes ready for RNA micro-injection were bought from Ecocyte, Castrop-Rauxel, Germany and stored in modified Barth's medium (composition in mM: NaCl 88, KCl 1, NaHCO3 2.4, HEPES 10, MgSO4 0.82, CaNO3 0.33, CaCl2 0.33, pH=7.5) at 20 C. until the experiment.
Xenopus Oocytes Microinjection
Oocytes were plated in 96-well plates for microinjection using the Roboinject automated instrument (MultiChannelSystems, Reutlingen, Germany). Approximately 50 nL of an aqueous solution containing the RNA transcripts for the subunits of the desired GABAA receptor subtype was injected into each oocyte. […] Oocytes were kept in modified Barth's medium (composition in mM: NaCl 88, KCl 1, NaHCO3 […], HEPES 10, MgSO4 0.82, CaNO3 0.33, CaCl2 0.33, pH=7.5) at 20° C. until the experiment.
Electrophysiological experiments were performed using the Roboocyte instrument (MultiChannelSystems, Reutlingen, Germany) on days 3 to 5 after the micro-injection of mRNA. During the experiment the oocytes were constantly superfused by a solution containing (in mM) NaCl 90, KCl 1, HEPES 5, MgCl: 1, CaCl, 1 (pH 7.4). Oocytes were impaled by two glass microelectrodes (resistance: 0.5-0.8 MS2) which were filled with a solution containing KCl 1M +K-acetate 1.5 M and voltage-clamped to −80 mV. The recordings were performed at room temperature using the Roboocyte two-electrode voltage clamp system (Multichannelsystem). After an initial equilibration period of 1.5 min GABA was added for 1.5 min at a concentration evoking approximately 20% of a maximal current response (EC20). After another rest interval of 2.5 min GABA was again added evoking a response of similar amplitude and shape. […] Current traces were recorded at a digitization rate of 10 Hz during and shortly before and after the GABA application.
Each compound and concentration was tested on at least 3 oocytes. Different oocytes were used for different compound concentrations.
For the analysis, the digitized current traces of the first and second GABA response were superimposed and, if necessary, rescaled to equal maximal amplitudes. The ratio between the two responses during the time interval of test compound application was calculated point by point. The extremum of the resulting “ratio trace” was taken as the efficacy (“Fold increase”) of the compound expressed as “% modulation of GABA EC” (100* (Fold increase-1)).

Compound | Ki [1] [nM] | Efficacy (GABA)% [2] [%] | Fold increase h-GABA-A α2β2γ1 oocyte @ 30-fold Ki [2]
Cc1nnc2n1-c1sc3c(c1C(c1c(F)cccc1Cl)=NC2)C[C@@H](C#N)C3 [Example 1, (13R)-9-(2-chloro-6-fluoro-phenyl)-3-methyl-16-thia-2,4,5,8-tetrazatetracyclo [8.6.0.02,6.011,15]hexadeca-1(10),3,5,8,11(15)-pentaene-13-carbonitrile] | 47.9 | 54 | 1.54
Cc1nnc2n1-c1sc3c(c1C(c1c(F)cccc1F)=NC2)C[C@@H](C(F)F)C3 [Example 3, (13R)-13-(difluoromethyl)-9-(2,6-difluorophenyl)-3-methyl-16-thia-2,4,5,8-tetrazatetracyclo [8.6.0.02,6.011,15]hexadeca-1(10),3,5,8,11(15)-pentaene] | 16.8 | 54 | 1.54
Cc1nnc2n1-c1sc3c(c1C(c1c(F)cccc1F)=N[C@H]2C)C[C@@H](C(F)F)C3 [Example 5, (7S,13R)-13-(difluoromethyl)-9-(2,6-difluorophenyl)-3,7-dimethyl-16-thia-2,4,5,8-tetrazatetracyclo [8.6.0.02,6.011,15]hexadeca-1(10),3,5,8,11(15)-pentaene] | 14.4 | 41 | 1.41
C[C@@H]1N=C(c2c(F)cccc2F)c2c(sc3c2C[C@@H](C(F)F)C3)-n2c(CO)cnc21 [Example 21, [(7S,13R)-13-(difluoromethyl)-9-(2,6-difluorophenyl)-7-methyl-16-thia-2,5,8-triazatetracyclo [8.6.0.02,6.011,15]hexadeca-1(10),3,5,8,11(15)-pentaen-3-yl]methanol] |  | 68 | 1.68
